Counter-ions that a name gives are not always drawn.
What was measured:
[1] = test system: α-SMA; assay: α-SMA expression in normal human lung fibroblasts (IMR-90) ± TGF (Western); assay type: cell-based
Procedure: (§1) Mice were treated with Gleevec by IP injection (6 mg/kg) or oral gavage (6 mg/kg) for 21 days. Fibroblasts were isolated from lung explants and cell lysates subjected to SDS-PAGE and immunoblotted for α-SMA. Blots were stripped and re-probed for α-tubulin. Additionally, the effects of Gleevec on pro-fibrotic signaling of fibroblasts by TGF-α1. Normal human lung fibroblasts (IMR-90) were stimulated ±TGF-â1 (2 ng/ml) Gleevec at the doses indicated for 24 h. Cell lysates were then subjected to SDS-PAGE and immunoblotted for specific antibodies to the proteins shown.
The present invention is not limited to a particular mechanism. Indeed, an understanding of the mechanism is not necessary to practice the present invention. […] Furthermore, these observations emphasize the importance of defining the modulation of fibroblast phenotypes/signaling both in vitro and in vivo.

[2] = test system: PKB/Akt; assay: TGF-induced PKB/Akt phosphorylation in normal human lung fibroblasts (IMR-90); assay type: cell-based; conditions: IMR-90, TGF 2 ng/ml, 24 h
Procedure: as §1
(§2) The present invention is not limited to a particular mechanism. Indeed, an understanding of the mechanism is not necessary to practice the present invention.

[3] = test system: FAK; assay: TGF-induced FAK phosphorylation in normal human lung fibroblasts (IMR-90); assay type: cell-based; conditions: IMR-90, TGF 2 ng/ml, 24 h
Procedure: as §1, §2

[4] = test system: bleomycin-injured mice; assay: Murine model of bleomycin-induced pulmonary fibrosis (lung collagen, histology); assay type: in vivo; conditions: 6 mg/kg IP or oral gavage for 21 days
Source text: Mice were given intratracheal bleomycin (BL) or saline (control). […] A) Lungs were harvested on day 14 following bleomycin injury and total lung collagen determined as described in “Methods”. […] B) Representative histopathology (hematoxylin and eosin staining, top panels; Masson's trichrome blue staining for collagen, bottom panels) of the lungs of mice intra-tracheally instilled with saline (control) or bleomycin (BL). […] Lungs were examined at day 14 following bleomycin injury.
Tissue sections were stained (H&E, mag 100×) 21 days following bleomycin and 14 days after treatment with NL-71-101.
B6129F2/J mice were purchased from Jackson Laboratories, Bar Harbor, Me., and housed under specific pathogen free conditions in enclosed filter top cages. Clean food and water was given ad libitum. The mice were handled and maintained using microisolator techniques with daily veterinarian monitoring. […]
Mice were euthanized by CO2 asphyxiation and perfused via the heart with 5 ml of normal saline. […] Following centrifugation, the pellet was resuspended in 1 ml of alkali reagent, vortexed to release the dye into solution, and 100 μl transferred to a microplate and absorbance measured at 540 nm. Values for experimental samples were calculated based on a standard curve of known concentrations of purified rat tail collagen. […]

[5] = test system: ERK-1/2 MAPK; assay: Baseline ERK-1/2 MAPK phosphorylation in normal human lung fibroblasts (IMR-90); assay type: cell-based; conditions: IMR-90, 24 h, doses indicated in FIG. 9
Procedure: as §1, §2

[6] = test system: α-SMA; assay: α-SMA expression in lung fibroblasts isolated from drug-treated bleomycin-injured mice (Western); assay type: in vivo; conditions: 6 mg/kg IP or oral gavage for 21 days
Source text: C57BL/6J mice were given intratracheal (IT) saline or bleomycin on day 1. […] Fibroblasts were isolated from lung explants on day 14 and expanded in in vitro cell culture. Cells were lysed in RIPA buffer at passage 2 and 90% confluency. Cell lysates were subjected to sodium dodecyl sulfate polyacrylamide gel electrophoresis and immunoblotted with antibodies against α-SMA (a marker of myofibroblast differentiation), phospho-S^473 Akt, and phospho-Y^397 FAK.
Fibroblasts were isolated from lung explants on day 14 and expanded in in vitro cell culture, initially in the presence of 10% fetal bovine serum and then in the absence of serum for 24 h. Cell lysates were obtained and subjected to SDS-PAGE and immunoblotted with antibodies against the proteins indicated.
Mice were treated with Gleevec by IP injection (6 mg/kg) or oral gavage (6 mg/kg) for 21 days. Fibroblasts were isolated from lung explants and cell lysates subjected to SDS-PAGE and immunoblotted for α-SMA. Blots were stripped and re-probed for α-tubulin. Additionally, the effects of Gleevec on pro-fibrotic signaling of fibroblasts by TGF-α1. […]
To determine the result of systemic administration of AG1879 in stable modulation of signaling/phenotype of fibroblasts and myofibroblasts in vivo, fibroblasts isolated from lungs of bleomycin injured mice were analyzed. […]

[7] = test system: FAK; assay: TGF-β1-induced FAK phosphorylation in normal fibroblasts (Western immunoblot); assay type: cell-based, human; conditions: TGF-β1 2 ng/ml, 10 μM drug co-treated, 16 h
Source text: (§3) Cell lysates were then subjected to SDS-PAGE and immunoblotted with specific antibodies against phospho-S^473 Akt and phospho-Y^397 FAK; blots were stripped and re-probed for total Akt and FAK, respectively.
(§4) Research protocols involving human subjects received prior approval by the Institutional Review Board at the University of Michigan. […] Fibroblasts were also isolated from normal-appearing lung tissue sections surgically removed from patients undergoing evaluation for suspected lung cancer. Cells were cultured in medium consisting of Dulbecco's modified Eagle's medium (DMEM; GIBCO, Grand Island, N.Y.) supplemented with 10% fetal bovine serum (FBS; Sigma, St. Louis, Mo.), 100 U/ml penicillin/streptomycin (Sigma, St. Louis Mo.), and fungizone (GIBCO, Grand Island, N.Y.); medium was changed every two days. Passage 3-5 fibroblasts were plated on 60 mm cell culture dishes at a density of 5×10^5 cells/dish and incubated at 37° C. in 5% CO2-95% air. When cells reached 80% confluence, they were growth-arrested for 48 hours in DMEM with 0.01% FBS prior to treatment with/without TGF-β1.
(§5) Porcine-derived TGF-β1 was obtained from R&D Systems, Minneapolis, Minn. All other cell culture reagents were from Sigma, St Louis, Mo. […] Drugs were initially solubilized in DMSO to make a 30 mM “stock” concentration. […]

[8] = test system: PKB/Akt; assay: TGF-β1-induced PKB/Akt phosphorylation in normal fibroblasts (Western immunoblot); assay type: cell-based, human; conditions: TGF-β1 2 ng/ml, 10 μM drug co-treated, 16 h
Source text: as §3, §4, §5

[9] = test system: PKB/Akt; assay: Constitutive PKB/Akt phosphorylation in IPF fibroblasts (Western immunoblot); assay type: cell-based, human; conditions: 16 h prior to cell lysis
Source text: as §3, §4, §5

Compound | baseline α-SMA expression ([1]; IMR-90, 24 h, no TGF) | TGF-α1-induced α-SMA expression ([1]; IMR-90, TGF 2 ng/ml, 24 h) | TGF-α1-induced phosphorylation/activation of PKB/Akt [2] | TGF-α1-induced phosphorylation/activation of FAK [3] | efficacy as an anti-fibrotic agent [4] | baseline phosphorylation of ERK-1/2 MAPK [5] | expression of α-SMA in lung fibroblasts cultured from treated mice [6] | inhibition of TGF-β1-induced FAK phosphorylation [7] | inhibition of TGF-β1-induced PKB/Akt phosphorylation [8] | inhibition of constitutive PKB/Akt phosphorylation at 10 μM [9]
Cc1ccc(NC(=O)c2ccc(CN3CCN(C)CC3)cc2)cc1Nc1nccc(-c2cccnc2)n1 [Gleevec, imatinib mesylate] | modest reductions | does not inhibit | promoted/enhanced | promoted/enhanced | not to be effective | dose-dependently enhanced | enhanced expression |  |  | 
Nc1ncnc2c1cnn2-c1ccccc1 [c/AG, 4-Amino-7-phenylpyrazol[3,4-d]pyramidine] |  |  |  |  |  |  |  | no effect | no effect | no effect
